According to patent publication US20150111896A1, “HEMATOPOIETIC PROTECTION AGAINST CHEMOTHERAPEUTIC COMPOUNDS USING SELECTIVE CYCLIN-DEPENDENT KINASE 4/6 INHIBITORS” (The University of North Carolina at Chapel Hill, priority 2008, published 2015):
Entries after “also recorded” stand apart in the source; their conditions may differ. Read-outs that look alike come from different tables or passages of the source.

Tests used:
[1] = tested on: human melanoma cells lacking INK4a/ARF (WM2664); assay: Cell cycle analysis (BrdU and propidium iodide, flow cytometry); format: cell-based; details: WM2664 (CDK4/6-dependent), 24 hours treatment
Method: (§1) Cells were cultured in DMEM+10% FBS.
(§2) Cell cycle analysis: Cell cycle analysis was performed using BrdU and propidium iodide (both from BD Biosciences Pharmigen, San Jose, Calif., United States of America) following the manufacturer's protocol. Cells were treated for 24 hours with a test compound at a desired dose prior to 15 minutes BrdU pulse, cell harvesting, fixation, staining, and analysis by flow cytometry.
(§3) Histograms of dose-response curves of PD332991 and 2BrIC in HS68, WM2664 and A2058 cells were analyzed using Mod-Fit™ software from Verity Software House (Topsham, Me., United States of America).

[2] = tested on: telomerized human diploid fibroblast (tHDF) cells (HS68); assay: as above; format: cell-based; details: HS68 (CDK4/6-dependent), 24 hours treatment
Method: as §1, §2, §3

[3] = tested on: human RB-null melanoma cells (A2058); assay: γH2AX assay (DNA damage, flow cytometry); format: cell-based; details: 16 hours pretreatment, then 8 hours Carbo, Etop or Dox
Description: (§4) Reduction in DNA damage effected by the test compound or maintenance of cell viability effected by the test compound in cells treated with cytotoxic compounds can be assessed in any suitable manner. For example, DNA damage in cell populations can be assessed by performing a gamma-H2AX assay as described further herein below. Mammalian cells respond to agents that introduce DNA double-stranded breaks with the immediate and substantial phosphorylation of histone H2AX. Thus, detection of the phosphorylated H2AX, termed gamma-H2AX (γH2AX), using commercially available antibodies, can serve as a measure of DNA damage in cells.
as §1
(§5) γH2AX assay: For γH2AX assay, cells were treated with a dose response of PD332991 or 2BrIC for 24 hours. Cells were fixed, permeabilized, and stained with anti-γH2AX antibody as per γH2AX Flow Kit (Millipore, Billerica, Mass., United States of America). γH2AX levels were assessed by flow cytometry.

[4] = tested on: human melanoma cells lacking INK4a/ARF (WM2664); assay: γH2AX assay (DNA damage, flow cytometry); format: cell-based; details: 16 hours pretreatment; for protection from doxorubicin-, carboplatin- or etoposide-induced DNA damage (gamma-H2AX): then 8 hours Carbo, Etop or Dox
Description: as §4, §1, §5

[5] = tested on: telomerized human diploid fibroblast (tHDF) cells (HS68); assay: γH2AX assay (DNA damage, flow cytometry); format: cell-based; details: 16 hours pretreatment, then 8 hours Carbo, Etop or Dox
Description: as §4, §1, §5

[6] = tested on: hematopoietic stem and progenitor cells (HSPC); assay: In vivo pharmacodynamic assay (BrdU incorporation, Ki67) in bone marrow; design: species or system mice; details: two doses 300 mg/kg oral gavage, 2 hours prior to and at BrdU injection; relative to formulation alone; 300 mg/kg
Method: PD0332991: For HSPC proliferation experiments, mice received daily oral gavage with PD0332991 150 mg/kg for 2 days with 1 mg BrdU intraperitoneal injection (i.p.) every 6 hours for 24 hours prior to sacrifice.
2BrIC: For HSPC proliferation experiments, mice were treated with two doses of 2-bromo-12,13-dihydro-5H-indolo[2,3-a]pyrrolo[3,4-c]carbazole-5,7(6H)-dione (2BrIC) 300 mg/kg oral gavage or vehicle control. 2BrIC was solubilized for oral gavage using formulation #6 from the Hot Rod formulation kit (Pharmatek, Inc., San Diego, Calif., United States of America). 2BrIC was administered 2 hours prior to BrdU administration and readministered at the time of the BrdU 1 mg i.p. injection. After BrdU+/−2BrIC treatment for the indicated times, the mice were sacrificed and bone marrow harvested for immunophenotyping, and BrdU analysis.
Bone marrow (BM) was harvested from femurs of mice, pooled, and centrifuged to purify bone marrow mononuclear cells (BM-MNCs). Cells were then incubated for 5 minutes in ACK buffer to lyse red blood cells. All antibodies were from BD Pharmingen (San Jose, Calif., United States of America) unless otherwise indicated. Purified BM-MNCs were incubated with mouse lineage mixture biotin conjugated antibody, followed by streptavidin-FITC. Cells were then stained with Sca-1-PE-Cy7 and c-kit-APC-alexa750 antibodies. Cell viability was assessed using LIVE/DEAD Aqua Dead Cell Stain Kit (Invitrogen Corporation, Carlsbad, Calif., United States of America). For BrdU incorporation assay, the cells were fixed, permeablized, and stained with an APC BrdU Flow Kit according to the manufacturer's instruction. In all experiments, PE-Cy7, FITC, APC-alexa750, and the Aqua Dead cell stain isotype controls were included as appropriate. Flow cytometric analysis was performed using a CyAn ADP (Dako, Glostrup, Denmark). For each sample, a minimum of 500,000 cells was analyzed and the data were analyzed using FlowJo software (Tree Star, Ashland, Oreg., United States of America).

[7] = tested on: mice exposed to chemotherapeutic agents; assay: Myelosuppression assay: weekly complete blood counts; format: in vivo; details: 150 mg/kg oral gavage, Carbo 100 mg/kg i.p., blood on sixth day
Method: PD0332991: In the carboplatin experiments, mice were treated with a single dose of PD0332991 150 mg/kg oral gavage or vehicle control followed by carboplatin 100 mg/kg IP injection. In the doxorubicin experiments, mice were treated with a PD0332991 150 mg/kg by oral gavage or vehicle control one hour before doxorubicin 10 mg/kg by IP injection on day 0 and then repeated on day 7.
2BrIC: Mice were treated with a single dose of carboplatin 100 mg/kg by IP injection and two doses of 2BrIC 150mg/kg oral gavage or vehicle control. Mice were pretreated with 2BrIC two hours prior to carboplatin administration and then readministered a second dose of 2BrIC at the time of the carboplatin injection.
Baseline complete blood count (CBC) analysis were performed on a subset of mice prior to drug administration. Following drug administration (chemotherapy+/−indicated CDK4/6 inhibitor or control), mice were monitored weekly for the presence of myelosuppression by CBC analysis. CBC analysis was performed using BD Microtainer tubes with K2E (K2EDTA), 40 μL of blood was collected by tail vein nick. Blood was analyzed using a HESKA CBC-Diff Veterinary Hematology System. CBC analysis included measurement of white blood cells, lymphocytes, granulocytes, monocytes, hematocrit, red blood cells, hemoglobin, platelets, and other common hematological parameters.

[8] = tested on: human melanoma cells lacking INK4a/ARF (WM2664); assay: Cell proliferation assay (WST-1 or CellTiter-Glo) after chemotherapeutic; details: for protection from chemotherapy-induced cytotoxicity (cell proliferation assays): WM2664 (CDK4/6-dependent), pretreatment prior to carboplatin, etoposide or doxorubicin
Method: (§7) In some embodiments, cell viability is assessed by performing a assay using 2-(4-iodophenyl)-3-(4-nitrophenyl)-5-(2,4-disulfophenyl)-2H-tetrazolium monosodium salt (WST-1), such as described further hereinbelow. In the WST-1 assay, WST-1 is cleaved by a mitochondrial reductase present in viable cells to form a colored product (i.e., formazan) that can be detected by measuring absorbance at a particular wavelength (e.g., 420-480 nm). […] The CellTiter-Glo® assay (CTG assay; Promega, Madison, Wis., United States of America) measures cell viability by measuring ATP concentration in cell lysate.
(§8) Cell lines: Telomerized human diploid fibroblast (tHDF) cells (HS68) were cultured in Dulbecco's Modified Eagle Medium (DMEM) +10% fetal bovine serum (FBS) with any additional compounds. The same conditions were used for A2058 and WM2664, human melanoma cell lines with known RB-pathway mutations: A2058 is RB-null, whereas WM2664 lacks INK4a/ARF. Thus, A2058 cells are CDK4/6-independent, while WM2664 cells are CDK4/6-dependent. Cells were cultured in DMEM+10% FBS.
(§9) Cell proliferation assays: Cell proliferation assays were performed by seeding 1×10^3 cells per well in a 96-well tissue culture plate in 100 μL of growth medium. Cells were treated as indicated with compound from Table 1 and doxorubicin, etoposide or carboplatin. Following treatment, cells were allowed to recover for 7 days in normal growth medium. At the end of the recovery period, cell number was quantified using the VVST-1 cell proliferation assay (TaKaRa Bio USA, Madison, Wis., United States of America) or the CellTiter-Glo® assay (CTG; Promega, Madison, Wis., United States of America). Data is presented as absorbance at 450 nm for the WST assays or Relative Light Units (RLU) for the CTG assays.

[9] = tested on: telomerized human diploid fibroblast (tHDF) cells (HS68); assay: as above; details: for chemoprotective effects against doxorubicin, carboplatin, etoposide (cell viability, CellTiter-Glo): 16 hour pretreatment, DOX 122 nM, Carbo 50 μM or Etop 2.5 μM 8 hours
Method: as §7, §8, §9

[10] = tested on: human RB-null melanoma cells (A2058); assay: as above; details: for protection from chemotherapy-induced cytotoxicity (cell proliferation assays): A2058 (CDK4/6-independent), pretreatment prior to carboplatin, etoposide or doxorubicin
Method: as §7, §8, §9

[11] = tested on: human RB-null melanoma cells (A2058); assay: Cell cycle analysis (BrdU and propidium iodide, flow cytometry); format: cell-based; details: A2058 (RB-null, CDK4/6-independent), 24 hours treatment
Method: as §1, §2, §3

[12] = tested on: telomerized human diploid fibroblast (tHDF) cells (HS68)
Method: as §7, §8, §9

[13] = tested on: RB-null human melanoma cells (A2058); assay: TOXILIGHT assay (adenylate kinase release); format: cell-based; details: 16 hours treatment, then Carbo 50 μM, DOX 122 nM or Etop 2.5 μM 8 hours
Method: (§6) Cellular cytotoxicity was assessed using the TOXILIGHT™ Bioassay kit (Lonza, Basel, Switzerland) which measures cytolysis by quantifying the release of adenylate kinase into the culture media. […] 100 μL of TOXILIGHT™ reagent is added and incubated for 5 minutes and read in a luminometer at 1 second/well.

[14] = tested on: human melanoma cells lacking INK4a/ARF (WM2664); assay: TOXILIGHT assay (adenylate kinase release); format: cell-based; details: 16 hours treatment, then Carbo 50 μM, DOX 122 nM or Etop 2.5 μM 8 hours
Method: as §6

HS68 cells = assay: TOXILIGHT assay (adenylate kinase release); format: cell-based, human; details: pretreatment, then Carbo 50 μM, DOX 122 nM or Etop 2.5 μM 8 hours
Method: as §6

In the case of `O=C1NC(=O)c2c1c1c3ccccc3[nH]c1c1[nH]c3cc(Br)ccc3c21` [Compound 2BrIC, 2-bromo-12,13-dihydro-5H-indolo[2,3-a]pyrrolo[3,4]-carbazole-5,6-dione], the cell cycle effect [1] is reported as “strong, clean and reversible G1-arrest”, the cell cycle effect [2] is reported as “strong, clean and reversible G1-arrest” and the “protection from doxorubicin-, carboplatin- or etoposide-induced DNA damage (gamma-H2AX)” value (from here on “protection … (gamma-H2AX)”) [3] is reported as “inability”. The “protection … (gamma-H2AX)” value [4] was “attenuated γH2AX staining”, the “protection from carboplatin-induced DNA damage (gamma-H2AX positive cells)” value ([4]; then 8 hours carboplatin) was “ability” and the “protection from doxorubicin-induced DNA damage (gamma-H2AX positive cells)” value ([4]; then 8 hours doxorubicin) was “ability”. The “protection from etoposide-induced DNA damage (gamma-H2AX positive cells)” value ([4]; then 8 hours etoposide) was “ability”, the “protection … (gamma-H2AX)” value [5] was “attenuated γH2AX staining; also recorded: ability” and the “incorporation of BrdU into Lin−Kit+Sca1+ cells (MPP)” value [6] was “inhibited; also recorded: clearly reducing proliferation”. The “protection of blood cell counts from carboplatin” value [7] was “provides protection of red blood cells and hemoglobin”, the “protection from chemotherapy-induced cytotoxicity (cell proliferation assays)” value (from here on “protection … (cell proliferation assays)”) [8] was “significant protection” and the “protection … (cell proliferation assays)” value ([9]; HS68 (CDK4/6-dependent), pretreatment prior to carboplatin, etoposide or doxorubicin) was “significant protection”. For the same compound, the “protection … (cell proliferation assays)” value [10] was “not” and the “protection from doxorubicin-induced cytotoxicity (cell viability, WST-1 assay)” value ([10]; A2058, absorbance at 450 nm, 7 days recovery) was “inability”.
In the case of `CCC(CO)Nc1nc(NCc2ccccc2)c2ncn(C(C)C)c2n1` (stereo not drawn) [Roscovitine], the cell cycle effect [11] is reported as “did not induce a clean G1 arrest”, the cell cycle effect [1] is reported as “does not induce G1 arrest” and the cell cycle effect ([1]; listed as roscovitine) is reported as “did not induce a clean G1 arrest”. The cell cycle effect [2] was “does not induce G1 arrest”, the cell cycle effect ([2]; listed as roscovitine) was “did not induce a clean G1 arrest” and the “protection … (cell proliferation assays)” value [12] was “failed to protect”. For the same compound, the “protection … (cell proliferation assays)” value [8] was “failed to protect”, the “chemoprotective effects against doxorubicin (cell viability, CellTiter-Glo)” value ([8]; WM2664, 16 hours pretreatment, DOX 122 nM 8 hours, viability after 7 days) was “absence of chemoprotective effects” and the “chemoprotective effects against doxorubicin (cell viability, CellTiter-Glo)” value ([9]; HS68, 16 hours pretreatment, DOX 370 nM 8 hours, viability after 7 days) was “absence of chemoprotective effects”. For the same compound, the “protection … (cell proliferation assays)” value [10] was “failed to protect” and the “chemoprotective effects against doxorubicin (cell viability, CellTiter-Glo)” value ([10]; A2058, 16 hours pretreatment, DOX 370 nM 8 hours, viability after 7 days) was “absence of chemoprotective effects”.
For `CN[C@@H]1C[C@H]2O[C@@](C)([C@@H]1OC)n1c3ccccc3c3c4c(c5c6ccccc6n2c5c31)C(=O)NC4` [staurosporine], the cell cycle effect [2] was “substantially pure G1 arrest”, the cell cycle effect ([2]; listed as Staurosporine) was “appears to induce G1 cell cycle arrest” and the “protection … (gamma-H2AX)” value [4] was “does not protect”. The “protection … (gamma-H2AX)” value ([4]; listed as Staurosporine) was “does not appear to protect”, the “protection … (gamma-H2AX)” value [5] was “does not protect” and the “protection … (gamma-H2AX)” value ([5]; listed as Staurosporine) was “does not appear to protect”. The “effect on chemotherapy-induced cytotoxicity (adenylate kinase release)” value (“effect … (adenylate kinase release)” for short) [13] was “enhances chemotherapy-induced cytotoxicity in a cyclin-dependent kinase 4/6 (CDK4/6)-independent manner”, the “effect … (adenylate kinase release)” value [14] was “enhances chemotherapy-induced cytotoxicity in a cyclin-dependent kinase 4/6 (CDK4/6)-independent manner” and the “effect … (adenylate kinase release)” value (HS68 cells) was “enhances chemotherapy-induced cytotoxicity in a cyclin-dependent kinase 4/6 (CDK4/6)-independent manner”. The “chemoprotective effects against doxorubicin, carboplatin, etoposide (cell viability, CellTiter-Glo)” value ([9]; HS68, viability after 7 days) was “does not provide protection” and the “chemoprotective effects against doxorubicin, carboplatin, etoposide (cell viability, CellTiter-Glo)” value ([9]; HS68, viability after 7 days, listed as Staurosporine) was “does not appear to protect”.
